Remaining binding data for one molecule are collected here from paper PMC8799717, “Pharmacological targeting PIKfyve and tubulin as an effective treatment strategy for double-hit lymphoma” (Cell Death Discovery, 2022).

One experiment has as its target RAF1 (Homo sapiens, UniProt P04049). Nature of the experiment: KINOMEscan competition binding, single dose […]. Conditions: read-out: % of control at 1 μM.
In the next experiment the target is DDR1 (Homo sapiens, UniProt Q08345). Briefly: KINOMEscan competition binding, single dose […]. The settings on record: read-out: % of control at 1 μM.
In another experiment the target is STK33 (Homo sapiens, UniProt Q9BYT3). Briefly: biochemical. Set-up: KINOMEscan active-site-directed competition binding panel, 468 kinases, percent of DMSO control at 1 uM. The settings on record: KINOMEscan binding, percent of DMSO control; read-out: Ctrl%.
The target of the next experiment is DYRK1B (Homo sapiens, UniProt Q9Y463). Nature of the experiment: biochemical. Details: KINOMEscan active-site-directed competition binding panel, 468 kinases, percent of DMSO control at 1 uM. The settings on record: KINOMEscan binding, percent of DMSO control; read-out: Ctrl%.
Another experiment addresses LTK (Homo sapiens, UniProt P29376). Nature of the experiment: biochemical. The settings on record: KINOMEscan binding, percent of DMSO control; read-out: Ctrl%. Details: KINOMEscan active-site-directed competition binding panel, 468 kinases, percent of DMSO control at 1 uM.
The target in a further experiment is EPHA8 (Homo sapiens, UniProt P29322). Briefly: KINOMEscan competition binding, single dose […]. The settings on record: read-out: % of control at 1 μM.
For a further experiment, the target named is LCK (Homo sapiens, UniProt P06239). Briefly: KINOMEscan competition binding, single dose […]. Conditions: read-out: % of control at 1 μM.
In a further experiment the target is PRKCD (Homo sapiens, UniProt Q05655). Nature of the experiment: biochemical. Details: KINOMEscan active-site-directed competition binding panel, 468 kinases, percent of DMSO control at 1 uM. The settings on record: KINOMEscan binding, percent of DMSO control; read-out: Ctrl%.
Another experiment concerns the target DDR2 (Homo sapiens, UniProt Q16832). Nature of the experiment: KINOMEscan competition binding, single dose […]. The settings on record: read-out: % of control at 1 μM.
A further experiment deals with KIT (Homo sapiens, UniProt P10721). Briefly: KINOMEscan competition binding, single dose […]. The settings on record: read-out: % of control at 1 μM.
Sequence of KIT (P10721 26-976): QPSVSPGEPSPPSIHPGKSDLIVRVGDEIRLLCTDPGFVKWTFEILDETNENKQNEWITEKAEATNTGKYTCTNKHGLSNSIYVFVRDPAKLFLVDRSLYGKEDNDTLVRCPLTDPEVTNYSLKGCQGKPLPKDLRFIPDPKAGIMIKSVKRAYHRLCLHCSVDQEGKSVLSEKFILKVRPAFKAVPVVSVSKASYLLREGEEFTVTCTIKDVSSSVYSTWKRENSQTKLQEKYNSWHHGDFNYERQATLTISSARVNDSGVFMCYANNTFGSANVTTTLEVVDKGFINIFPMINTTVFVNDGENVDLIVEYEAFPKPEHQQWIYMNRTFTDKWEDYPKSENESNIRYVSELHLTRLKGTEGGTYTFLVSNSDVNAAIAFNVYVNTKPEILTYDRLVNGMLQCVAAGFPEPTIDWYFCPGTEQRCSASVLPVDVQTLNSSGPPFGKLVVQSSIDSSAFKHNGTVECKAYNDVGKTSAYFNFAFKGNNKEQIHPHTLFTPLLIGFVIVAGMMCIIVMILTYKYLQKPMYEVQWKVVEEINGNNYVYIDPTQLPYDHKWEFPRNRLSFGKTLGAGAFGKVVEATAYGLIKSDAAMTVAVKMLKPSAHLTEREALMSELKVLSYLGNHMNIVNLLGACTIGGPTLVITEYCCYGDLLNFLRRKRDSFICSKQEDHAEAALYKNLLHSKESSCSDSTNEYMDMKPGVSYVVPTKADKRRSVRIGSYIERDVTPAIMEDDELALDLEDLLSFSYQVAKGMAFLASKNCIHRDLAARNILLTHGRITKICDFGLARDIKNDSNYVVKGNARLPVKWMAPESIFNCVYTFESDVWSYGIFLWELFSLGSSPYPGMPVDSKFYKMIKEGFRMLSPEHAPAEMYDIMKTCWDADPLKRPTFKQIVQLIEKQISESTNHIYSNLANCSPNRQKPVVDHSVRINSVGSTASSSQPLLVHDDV

Sequence of RAF1 (P04049 whole entry): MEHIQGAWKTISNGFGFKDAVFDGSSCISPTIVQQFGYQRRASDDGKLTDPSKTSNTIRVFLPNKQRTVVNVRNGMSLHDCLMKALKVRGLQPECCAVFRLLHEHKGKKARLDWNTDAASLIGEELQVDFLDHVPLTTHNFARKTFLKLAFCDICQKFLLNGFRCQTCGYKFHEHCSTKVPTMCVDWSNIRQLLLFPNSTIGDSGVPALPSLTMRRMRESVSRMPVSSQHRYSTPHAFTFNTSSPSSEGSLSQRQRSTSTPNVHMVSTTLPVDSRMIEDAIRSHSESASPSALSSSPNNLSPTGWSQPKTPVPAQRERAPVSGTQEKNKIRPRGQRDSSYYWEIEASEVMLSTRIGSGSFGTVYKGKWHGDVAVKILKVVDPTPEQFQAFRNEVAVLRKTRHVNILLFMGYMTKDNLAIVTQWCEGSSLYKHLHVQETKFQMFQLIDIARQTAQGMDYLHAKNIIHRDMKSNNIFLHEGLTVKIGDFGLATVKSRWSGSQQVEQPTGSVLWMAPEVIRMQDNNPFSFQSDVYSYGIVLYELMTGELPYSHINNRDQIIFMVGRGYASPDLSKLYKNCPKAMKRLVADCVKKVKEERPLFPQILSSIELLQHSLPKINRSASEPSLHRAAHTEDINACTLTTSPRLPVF
Sequence of STK33 (Q9BYT3 whole entry): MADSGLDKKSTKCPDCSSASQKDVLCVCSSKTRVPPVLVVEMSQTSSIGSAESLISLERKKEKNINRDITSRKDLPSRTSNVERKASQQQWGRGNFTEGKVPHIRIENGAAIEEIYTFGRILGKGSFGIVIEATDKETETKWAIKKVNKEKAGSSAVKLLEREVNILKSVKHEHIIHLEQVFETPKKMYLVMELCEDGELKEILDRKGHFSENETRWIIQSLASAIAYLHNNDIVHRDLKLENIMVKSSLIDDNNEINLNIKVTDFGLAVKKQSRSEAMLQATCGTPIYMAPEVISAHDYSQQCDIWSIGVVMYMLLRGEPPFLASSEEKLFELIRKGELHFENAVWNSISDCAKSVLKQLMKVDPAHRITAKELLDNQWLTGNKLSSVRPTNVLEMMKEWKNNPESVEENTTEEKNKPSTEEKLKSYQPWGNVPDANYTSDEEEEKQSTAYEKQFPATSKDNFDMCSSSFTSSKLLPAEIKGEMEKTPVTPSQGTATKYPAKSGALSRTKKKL
Sequence of DDR2 (Q16832 22-855): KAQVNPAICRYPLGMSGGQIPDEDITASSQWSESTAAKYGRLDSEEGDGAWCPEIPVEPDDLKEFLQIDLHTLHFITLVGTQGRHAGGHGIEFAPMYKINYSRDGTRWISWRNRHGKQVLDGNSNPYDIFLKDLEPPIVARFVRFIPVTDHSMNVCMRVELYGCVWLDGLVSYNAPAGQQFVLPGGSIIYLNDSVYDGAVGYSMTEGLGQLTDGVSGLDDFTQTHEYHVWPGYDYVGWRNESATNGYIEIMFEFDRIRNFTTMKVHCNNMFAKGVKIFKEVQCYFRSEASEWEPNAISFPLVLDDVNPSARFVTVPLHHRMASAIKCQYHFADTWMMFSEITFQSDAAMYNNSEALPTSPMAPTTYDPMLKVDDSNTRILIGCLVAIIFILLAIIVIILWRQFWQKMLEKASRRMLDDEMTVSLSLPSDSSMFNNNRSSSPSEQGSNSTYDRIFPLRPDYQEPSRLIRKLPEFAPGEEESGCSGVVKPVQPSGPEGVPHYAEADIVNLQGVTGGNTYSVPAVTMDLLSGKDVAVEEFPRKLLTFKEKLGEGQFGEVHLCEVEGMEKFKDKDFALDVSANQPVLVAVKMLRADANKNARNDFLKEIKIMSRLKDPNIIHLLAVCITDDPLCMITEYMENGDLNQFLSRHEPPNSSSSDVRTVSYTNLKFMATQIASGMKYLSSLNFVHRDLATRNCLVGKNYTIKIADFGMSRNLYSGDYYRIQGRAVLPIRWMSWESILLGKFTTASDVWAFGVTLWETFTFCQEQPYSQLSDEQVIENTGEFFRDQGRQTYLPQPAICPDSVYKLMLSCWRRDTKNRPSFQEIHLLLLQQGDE
Sequence of DDR1 (Q08345 19-913): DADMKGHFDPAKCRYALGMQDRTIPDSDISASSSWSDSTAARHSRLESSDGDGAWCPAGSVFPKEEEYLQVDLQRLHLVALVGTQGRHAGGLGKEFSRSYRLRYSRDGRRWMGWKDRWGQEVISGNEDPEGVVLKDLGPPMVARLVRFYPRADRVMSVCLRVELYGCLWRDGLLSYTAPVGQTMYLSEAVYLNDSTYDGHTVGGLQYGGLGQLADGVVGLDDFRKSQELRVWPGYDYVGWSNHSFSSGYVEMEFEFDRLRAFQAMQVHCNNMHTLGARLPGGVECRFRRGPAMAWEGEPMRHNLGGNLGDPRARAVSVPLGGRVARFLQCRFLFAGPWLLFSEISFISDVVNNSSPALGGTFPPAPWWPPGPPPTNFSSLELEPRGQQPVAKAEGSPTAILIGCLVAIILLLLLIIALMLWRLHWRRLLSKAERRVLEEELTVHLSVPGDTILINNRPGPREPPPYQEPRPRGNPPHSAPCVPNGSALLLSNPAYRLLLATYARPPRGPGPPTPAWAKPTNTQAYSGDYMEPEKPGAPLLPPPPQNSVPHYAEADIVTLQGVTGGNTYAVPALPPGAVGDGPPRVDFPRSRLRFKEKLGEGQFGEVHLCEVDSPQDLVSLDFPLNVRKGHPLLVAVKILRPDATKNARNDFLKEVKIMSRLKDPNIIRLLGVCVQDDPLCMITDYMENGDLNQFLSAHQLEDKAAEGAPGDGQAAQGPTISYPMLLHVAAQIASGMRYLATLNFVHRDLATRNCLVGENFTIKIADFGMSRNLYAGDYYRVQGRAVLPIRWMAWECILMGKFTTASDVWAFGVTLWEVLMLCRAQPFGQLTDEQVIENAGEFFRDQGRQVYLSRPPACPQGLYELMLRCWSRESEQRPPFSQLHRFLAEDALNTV
Sequence of DYRK1B (Q9Y463 whole entry): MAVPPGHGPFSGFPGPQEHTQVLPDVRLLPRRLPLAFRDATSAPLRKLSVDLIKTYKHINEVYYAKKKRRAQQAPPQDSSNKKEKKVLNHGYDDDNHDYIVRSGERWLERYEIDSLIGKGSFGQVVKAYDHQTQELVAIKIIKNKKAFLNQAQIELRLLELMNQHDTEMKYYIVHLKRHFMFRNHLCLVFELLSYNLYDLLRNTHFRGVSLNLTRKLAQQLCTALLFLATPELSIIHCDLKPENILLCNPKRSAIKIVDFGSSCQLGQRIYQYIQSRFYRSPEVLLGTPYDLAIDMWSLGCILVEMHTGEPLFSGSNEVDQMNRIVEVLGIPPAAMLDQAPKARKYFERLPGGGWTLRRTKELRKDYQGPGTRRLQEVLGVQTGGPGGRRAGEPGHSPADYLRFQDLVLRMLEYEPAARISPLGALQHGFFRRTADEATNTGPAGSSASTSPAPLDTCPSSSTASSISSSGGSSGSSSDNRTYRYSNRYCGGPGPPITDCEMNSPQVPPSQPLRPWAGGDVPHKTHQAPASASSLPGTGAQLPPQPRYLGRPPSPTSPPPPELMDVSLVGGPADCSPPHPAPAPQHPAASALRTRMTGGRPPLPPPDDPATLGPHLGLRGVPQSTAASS
Sequence of LCK (P06239 2-509): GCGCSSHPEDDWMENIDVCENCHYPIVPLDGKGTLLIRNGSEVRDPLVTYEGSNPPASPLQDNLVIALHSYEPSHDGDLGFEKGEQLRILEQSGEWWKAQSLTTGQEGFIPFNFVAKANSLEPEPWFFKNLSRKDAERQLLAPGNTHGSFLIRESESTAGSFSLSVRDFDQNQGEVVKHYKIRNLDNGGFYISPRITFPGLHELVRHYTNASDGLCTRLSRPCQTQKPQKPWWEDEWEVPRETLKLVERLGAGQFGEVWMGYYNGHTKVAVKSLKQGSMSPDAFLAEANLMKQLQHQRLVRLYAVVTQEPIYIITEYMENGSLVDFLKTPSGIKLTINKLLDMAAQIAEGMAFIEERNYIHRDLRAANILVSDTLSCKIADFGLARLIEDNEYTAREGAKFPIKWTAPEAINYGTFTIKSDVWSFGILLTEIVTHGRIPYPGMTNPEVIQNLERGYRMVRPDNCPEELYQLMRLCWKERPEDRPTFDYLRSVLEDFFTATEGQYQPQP

`Cc1ccc(NC(=O)c2cccc(C(F)(F)F)c2)cc1Nc1cc(-c2cccnc2)nc2[nH]ccc12` [HZX-02-059]: the remaining binding at 1 µM at RAF1 was found to be 0.95%; on DDR1, 0.75%; at STK33 it was 94%; on DYRK1B, 97%; at LTK it was 79%; on EPHA8, 0.5%. For the same molecule, the remaining binding at 1 µM on LCK amounted to 0.9%; at PRKCD, 96%; at DDR2, 0%; on KIT it was 1.2%.
